Laboratory results taken from the NIST ThermoML archive (doi:10.1016/j.jct.2012.06.031).
± gives the expanded uncertainty stated by the source.

Assay: xn = mol fraction of the nth substance listed
Settings: 101 kPa, Liquid; for viscosity: Concentric cylinders viscometry; for mass density: Vibrating tube method

c1ccncc1 [pyridine] + OCC(O)CO
Settings | mass density [kg/m3] | viscosity [mPa·s]
288.15 K, x1 = 0.1 | 1237.23 ± 0.21 | 1518 ± 70
288.15 K, x1 = 0.2001 | 1209.17 ± 0.19 | 853.01 ± 33
288.15 K, x1 = 0.3001 | 1182.56 ± 0.18 | 438.65 ± 13
288.15 K, x1 = 0.4 | 1156.91 ± 0.17 | 202.46 ± 4
288.15 K, x1 = 0.4998 | 1130.25 ± 0.16 | 86.64 ± 0.78
288.15 K, x1 = 0.6001 | 1103.35 ± 0.15 | 29.67 ± 0.2
288.15 K, x1 = 0.6999 | 1075.51 ± 0.14 | 7.871 ± 0.068
288.15 K, x1 = 0.8001 | 1047.04 ± 0.13 | 4.241 ± 0.021
288.15 K, x1 = 0.8999 | 1018 ± 0.13 | 1.944 ± 0.013
288.15 K, x1 = 1 | 988.061 ± 0.12 | 1.03 ± 0.0089
293.15 K, x1 = 0.1 | 1233.99 ± 0.21 | 946.3 ± 38
293.15 K, x1 = 0.2001 | 1205.75 ± 0.19 | 539.76 ± 17
293.15 K, x1 = 0.3001 | 1178.91 ± 0.18 | 283.85 ± 6.8
293.15 K, x1 = 0.4 | 1153.16 ± 0.17 | 135.63 ± 1.9
293.15 K, x1 = 0.4998 | 1126.26 ± 0.15 | 60.5 ± 0.28
293.15 K, x1 = 0.6001 | 1099.12 ± 0.15 | 22.37 ± 0.11
293.15 K, x1 = 0.6999 | 1071.23 ± 0.14 | 6.966 ± 0.034
293.15 K, x1 = 0.8001 | 1042.41 ± 0.13 | 3.639 ± 0.017
293.15 K, x1 = 0.8999 | 1013.18 ± 0.13 | 1.748 ± 0.011
293.15 K, x1 = 1 | 983.038 ± 0.12 | 0.9588 ± 0.0087
298.15 K, x1 = 0.1 | 1230.73 ± 0.21 | 608.94 ± 21
298.15 K, x1 = 0.2001 | 1202.25 ± 0.19 | 352.75 ± 9.4
298.15 K, x1 = 0.3001 | 1175.23 ± 0.18 | 189.75 ± 3.5
298.15 K, x1 = 0.4 | 1149.36 ± 0.17 | 93.82 ± 0.88
298.15 K, x1 = 0.4998 | 1122.23 ± 0.15 | 43.51 ± 0.21
298.15 K, x1 = 0.6001 | 1094.86 ± 0.15 | 17.25 ± 0.082
298.15 K, x1 = 0.6999 | 1066.63 ± 0.14 | 6.111 ± 0.029
298.15 K, x1 = 0.8001 | 1037.6 ± 0.13 | 3.155 ± 0.016
298.15 K, x1 = 0.8999 | 1008.34 ± 0.13 | –
298.15 K, x1 = 1 | 978.006 ± 0.12 | 0.8943 ± 0.0086
303.15 K, x1 = 0.1 | 1227.44 ± 0.21 | 403.56 ± 12
303.15 K, x1 = 0.2001 | 1198.74 ± 0.19 | 237.3 ± 5.1
303.15 K, x1 = 0.3001 | 1171.52 ± 0.17 | 130.53 ± 1.8
303.15 K, x1 = 0.4 | 1145.49 ± 0.16 | 66.75 ± 0.36
303.15 K, x1 = 0.4998 | 1118.17 ± 0.15 | 32.21 ± 0.15
303.15 K, x1 = 0.6001 | 1090.58 ± 0.14 | 13.57 ± 0.063
303.15 K, x1 = 0.6999 | 1062.16 ± 0.14 | 5.257 ± 0.025
303.15 K, x1 = 0.8001 | 1033.11 ± 0.13 | 2.765 ± 0.014
303.15 K, x1 = 0.8999 | 1003.49 ± 0.13 | 1.439 ± 0.01
303.15 K, x1 = 1 | 972.967 ± 0.12 | 0.8355 ± 0.0085
308.15 K, x1 = 0.1 | 1224.12 ± 0.2 | 275.49 ± 6.5
308.15 K, x1 = 0.2001 | 1195.32 ± 0.19 | 164.23 ± 2.7
308.15 K, x1 = 0.3001 | 1167.95 ± 0.17 | 92.29 ± 0.84
308.15 K, x1 = 0.4 | 1141.6 ± 0.16 | 48.72 ± 0.23
308.15 K, x1 = 0.4998 | 1114.07 ± 0.15 | 24.45 ± 0.11
308.15 K, x1 = 0.6001 | 1086.27 ± 0.14 | 10.87 ± 0.05
308.15 K, x1 = 0.6999 | 1057.66 ± 0.14 | 4.532 ± 0.022
308.15 K, x1 = 0.8001 | 1028.43 ± 0.13 | 2.441 ± 0.013
308.15 K, x1 = 0.8999 | 998.628 ± 0.13 | 1.316 ± 0.0097
308.15 K, x1 = 1 | 967.913 ± 0.12 | 0.7837 ± 0.0084
313.15 K, x1 = 0.1 | 1220.77 ± 0.2 | 192.54 ± 3.6
313.15 K, x1 = 0.2001 | 1191.92 ± 0.19 | 116.47 ± 1.4
313.15 K, x1 = 0.3001 | 1164.44 ± 0.17 | 66.86 ± 0.35
313.15 K, x1 = 0.4 | 1137.67 ± 0.16 | 36.35 ± 0.17
313.15 K, x1 = 0.4998 | 1109.95 ± 0.15 | 18.9 ± 0.085
313.15 K, x1 = 0.6001 | 1081.93 ± 0.14 | 8.841 ± 0.04
313.15 K, x1 = 0.6999 | 1053.14 ± 0.14 | 3.95 ± 0.019
313.15 K, x1 = 0.8001 | 1023.73 ± 0.13 | 2.172 ± 0.012
313.15 K, x1 = 0.8999 | 993.746 ± 0.13 | 1.209 ± 0.0094
313.15 K, x1 = 1 | 962.849 ± 0.12 | 0.7354 ± 0.0083
318.15 K, x1 = 0.1 | 1217.48 ± 0.2 | 137.7 ± 2
318.15 K, x1 = 0.2001 | 1188.63 ± 0.19 | 84.41 ± 0.67
318.15 K, x1 = 0.3001 | 1160.93 ± 0.17 | 49.31 ± 0.23
318.15 K, x1 = 0.4 | 1133.7 ± 0.16 | 27.66 ± 0.12
318.15 K, x1 = 0.4998 | 1105.79 ± 0.15 | 14.88 ± 0.066
318.15 K, x1 = 0.6001 | 1077.57 ± 0.14 | 7.298 ± 0.033
318.15 K, x1 = 0.6999 | 1048.59 ± 0.14 | 3.463 ± 0.017
318.15 K, x1 = 0.8001 | 1019 ± 0.13 | 1.944 ± 0.011
318.15 K, x1 = 0.8999 | 988.846 ± 0.13 | 1.114 ± 0.0092
318.15 K, x1 = 1 | 957.769 ± 0.12 | 0.6912 ± 0.0082
323.15 K, x1 = 0.1 | 1214.26 ± 0.2 | 101.38 ± 1
323.15 K, x1 = 0.2001 | 1185.34 ± 0.18 | 63.12 ± 0.29
323.15 K, x1 = 0.3001 | 1157.38 ± 0.17 | 38.06 ± 0.17
323.15 K, x1 = 0.4 | 1129.71 ± 0.16 | 21.58 ± 0.091
323.15 K, x1 = 0.4998 | 1101.59 ± 0.15 | 12.04 ± 0.05
323.15 K, x1 = 0.6001 | 1073.01 ± 0.14 | 6.153 ± 0.027
323.15 K, x1 = 0.6999 | 1044.02 ± 0.14 | 3.06 ± 0.015
323.15 K, x1 = 0.8001 | 1014.26 ± 0.13 | 1.769 ± 0.011
323.15 K, x1 = 0.8999 | 983.927 ± 0.13 | 1.038 ± 0.009
323.15 K, x1 = 1 | 952.673 ± 0.12 | 0.6507 ± 0.0081
